Reference: PubChem BioAssay AID463206 (Broad Institute, 2010)
Activity calls are given as the source filed them.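 Rule for the calls: active = caspase luminescence falls with dose and the half-maximal concentration AC50 from the fitted curve is at or below a set limit; inconclusive = flat fit at 30 to 70% signal loss, or invalid fit; inactive = AC50 above the limit, or signal rises instead.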

What follows are molecules tested on INS-1E cytokine-induced caspase-3/7, Caspase-Glo luminescence, 48 h (assay: inhibitors of cytokine-induced caspase-3/7 activity, dose response, orthogonal assay for beta-cell apoptosis protection project, INS-1E rat cells, luminescence (AID 463206)).

SMILES	AC50
O=C(Nc1ccc(OCC(=O)N2CCC(Cc3ccccc3)CC2)cc1)c1ccco1	> 26 µM (inactive)
CCC(=O)NC(c1ccc(C)cc1)c1cc([N+](=O)[O-])c2cccnc2c1O (configuration not stated)	> 26 µM (inactive)
O=C(Nc1ccc(F)cc1)c1cccnc1	> 26 µM (inactive)
O=C1/C(=C\c2cccnc2)CN(Cc2ccccc2)C/C1=C\c1cccnc1	> 26 µM (inactive)
Cc1ccc(C(=O)N/C(=C\c2ccc(-c3ccccc3[N+](=O)[O-])o2)C(=O)NCCCN2CCOCC2)cc1	> 26 µM (inactive)
CC(=O)c1c(C)n(CC(=O)NCc2ccco2)c2ccccc12	> 26 µM (inactive)
O=C(Nc1ccc2nc3n(c(=O)c2c1)CCCCC3)c1c(F)ccc([N+](=O)[O-])c1F	> 26 µM (inactive)
O=C(N/N=C/c1c(O)ccc2ccccc12)c1[nH]ncc1Br	> 26 µM (inactive)
COc1ccc2c(c1)C(=O)[C@H](O)[C@@H](c1ccc(OC)c(Br)c1)O2	> 26 µM (inactive)
CCCOc1ccc(Br)cc1CSC(=N)N	> 12 µM (inactive)
Fc1ccccc1/C=N/Nc1nc(-c2ccccn2)nc2ccccc12	> 26 µM (inactive)
CC(Oc1ccc(Cl)cc1Cl)c1nc(-c2ccc(NC(=O)c3cccnc3)cc2)no1 (configuration not stated)	> 26 µM (inactive)
CC(=O)Nc1ccc(S(=O)(=O)N2c3ccccc3NC(=O)CC2C)c(Cl)c1 (configuration not stated)	> 26 µM (inactive)
Cc1cccc2cc(-c3ccccc3)c(-c3ccccc3)c[n+]12	> 26 µM (inactive)
CN(C)CCOc1ccc(-c2c(-c3ccccc3)sc3ccccc23)cc1	> 26 µM (inactive)
Cc1ccc(C)c(NC(=O)/C(C#N)=C/c2cn(CC(=O)NCc3ccco3)c3ccccc23)c1	> 26 µM (inactive)
O=C(NCCCn1ccnc1)c1ccc(N2CCCCCC2)c([N+](=O)[O-])c1	> 26 µM (inactive)
C[n+]1c2n(c3ccccc31)N=C(c1cc(C(C)(C)C)c(O)c(C(C)(C)C)c1)CS2	> 26 µM (inactive)
Cc1cc(N/N=C/c2ccc(O)cc2O)nc(-c2ccccc2O)n1	> 26 µM (inactive)
CCS(=O)(=O)c1ncc(Cl)c(C(=O)Nc2ccc(S(=O)(=O)N(C)c3ccccc3)cc2)n1	> 26 µM (inactive)
Cc1cc(-c2ccccc2)cc(C)[n+]1Cc1ccccc1	> 26 µM (inactive)
COc1ccc(CNCCc2c(C)[nH]c3ccc(OC(F)(F)F)cc23)c(OC)c1	> 26 µM (inactive)
Cc1[nH]n(-c2ccccc2)c(=O)c1/C=N/Nc1nncc(-c2ccccc2)n1	> 26 µM (inactive)
[O-]c1ccccc1-[n+]1c(-c2ccccc2)cc(-c2ccccc2)cc1-c1ccccc1	> 26 µM (inactive)

SMILES	AC50
Cc1cc(N2CCCC2=O)cc(C)c1S(=O)(=O)NCCOc1ccc(C(C)(C)C)cc1	> 26 µM (inactive)
COc1cccc(/C=N\NC(=O)c2ccc(Cn3cc(Br)c([N+](=O)[O-])n3)o2)c1O	> 26 µM (inactive)
Cc1ccc(Cl)cc1N1CCN(C(=O)CSc2nnc3n2C(C)(C)Cc2ccccc2-3)CC1	> 26 µM (inactive)
Cc1ccc(NC2=CC(=O)C(=O)c3ccccc32)cc1	> 26 µM (inactive)
C/C(=N\NC(=O)c1ccc(Cl)c(Cl)c1)c1ccccn1	> 26 µM (inactive)
Cc1ccc(NS(=O)(=O)c2cc([N+](=O)[O-])ccc2NNC(=S)Nc2cc(C)ccc2C)c(C)c1	> 26 µM (inactive)
COc1ccc(C)cc1Nc1n[n+](-c2ccccc2)c(-c2c(OC)ccc3ccccc23)s1	> 26 µM (inactive)
c1cnc(N2CCN(Cc3c[nH]c4ccccc34)CC2)nc1	> 26 µM (inactive)
CCOC(=O)c1c(CSc2nc(C)cc(C)c2C#N)n(C)c2cc(Br)c(OC(C)=O)cc12	> 26 µM (inactive)
CCN(CC)S(=O)(=O)c1cc(C)ccc1NC(=S)Nc1cccnc1	> 26 µM (inactive)
CC(=O)/C=C/n1c(=S)oc2ccccc21	> 26 µM (inactive)
Cc1ccc(C)c(NS(=O)(=O)c2ccc(OCC(=O)NCc3cccnc3)cc2)c1	> 26 µM (inactive)
O=C1C=C(c2ccc(F)cc2OCc2ccccc2)C[C@@H](c2ccc(Cl)cc2)C1	> 26 µM (inactive)
CC(=O)c1ccc(NC(=S)NC(C)c2ccc(Cl)cc2Cl)cc1 (configuration not stated)	> 26 µM (inactive)
COc1cc(CN2CCN(c3cc(C)ccc3C)CC2)ccc1O	> 26 µM (inactive)
CCc1cc(C(=O)NC2CCCc3c2cnn3-c2cccc(C)c2C)n(C)n1 (configuration not stated)	> 26 µM (inactive)
O=[N+]([O-])/C=C/c1ccc2c(ccn2Cc2ccccc2)c1	> 26 µM (inactive)
O=C(NCc1cccnc1)c1ccc(-c2cc3ccccc3oc2=O)cc1	> 26 µM (inactive)
N#CCSc1nc2ccccc2c2nc3ccccc3n12	> 26 µM (inactive)
COc1ccc(S(=O)(=O)Nc2ccc3oc(C)c(C(C)=O)c3c2)cc1	22.6 µM
CCCCCCCCCCCCCCCC[N+](C)(C)CC	> 26 µM (inactive)
O=C(Nc1ccc(-c2csc(Nc3cccc(C(F)(F)F)c3)n2)cc1)c1cc([N+](=O)[O-])cc(C(F)(F)F)c1	> 26 µM (inactive)
CC(Oc1cccc(Cl)c1)C(=O)Nc1cc(S(=O)(=O)N2CCOCC2)ccc1N1CCCCC1 (configuration not stated)	> 26 µM (inactive)
